Columns and labels:
Assay in all cases: relative viability (nuclei count vs DMSO), 5 days (fraction); higher = more cells survive
COR-L 105 = test system: COR-L 105
Method in brief: (§1)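 The day after seeding in 1536-well plates, lung cancer cell lines were treated by pin tool with a single drug, or with a fixed anchor-drug dose together with five library-drug doses (not always all listed) in √10 steps. After 5 days, a combined fix-and-stain solution (final 0.05% Triton X-100, 1% formaldehyde, 1 ug/ml Hoechst) was added. Nuclei counted on 4× images gave relative viability as treated counts over vehicle counts, reported as the median of duplicate plates.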

LU99A = test system: LU99A
Method in brief: as §1

LOU-NH91 = test system: LOU-NH91
Method in brief: as §1

NCI-H358 = test system: NCI-H358
Method in brief: as §1

RERF-LC-KJ = test system: RERF-LC-KJ
Method in brief: as §1

BEN = test system: BEN
Method in brief: as §1

LK-2 = test system: LK-2
Method in brief: as §1

NCI-H2087 = test system: NCI-H2087
Method in brief: as §1

SK-MES-1 = test system: SK-MES-1
Method in brief: as §1

EMC-BAC-2 = test system: EMC-BAC-2
Method in brief: as §1

EKVX = test system: EKVX
Method in brief: as §1

SW 1573 = test system: SW 1573
Method in brief: as §1

EPLC-272H = test system: EPLC-272H
Method in brief: as §1

ChaGo-K-1 = test system: ChaGo-K-1
Method in brief: as §1

NCI-H1792 = test system: NCI-H1792
Method in brief: as §1

HCC-78 = test system: HCC-78
Method in brief: as §1

NCI-H2126 = test system: NCI-H2126
Method in brief: as §1

NCI-H1734 = test system: NCI-H1734
Method in brief: as §1

NCI-H1944 = test system: NCI-H1944
Method in brief: as §1

LCLC-97TM1 = test system: LCLC-97TM1
Method in brief: as §1

HCC-827 = test system: HCC-827
Method in brief: as §1

NCI-H727 = test system: NCI-H727
Method in brief: as §1

NCI-H1650 = test system: NCI-H1650
Method in brief: as §1

O=c1[nH]c2ccccc2n1C1CCN(CCCC(c2ccc(F)cc2)c2ccc(F)cc2)CC1 [Pimozide] + O=C(c1cc(Cc2n[nH]c(=O)c3ccccc23)ccc1F)N1CCN(C(=O)C2CC2)CC1 [Olaparib] (partner 8 µM)
relative viability (COR-L 105; first compound 0.08 µM): 0.664
relative viability (COR-L 105; first compound 0.253 µM): 0.659
relative viability (COR-L 105; first compound 0.8 µM): 0.83
relative viability (COR-L 105; first compound 2.53 µM): 0.696
relative viability (COR-L 105; first compound 8 µM): 0.664
relative viability (LU99A; first compound 0.08 µM): 0.251
relative viability (LU99A; first compound 0.8 µM): 0.26
relative viability (LU99A; first compound 2.53 µM): 0.297
relative viability (LU99A; first compound 8 µM): 0.254
relative viability (LOU-NH91; first compound 0.08 µM): 0.655
relative viability (LOU-NH91; first compound 0.253 µM): 0.911
relative viability (LOU-NH91; first compound 0.8 µM): 0.866
relative viability (LOU-NH91; first compound 2.53 µM): 0.962
relative viability (LOU-NH91; first compound 8 µM): 0.971
relative viability (NCI-H358; first compound 0.08 µM): 0.596
relative viability (NCI-H358; first compound 0.253 µM): 0.583
relative viability (NCI-H358; first compound 0.8 µM): 0.561
relative viability (NCI-H358; first compound 2.53 µM): 0.508
relative viability (NCI-H358; first compound 8 µM): 0.595
relative viability (RERF-LC-KJ; first compound 0.08 µM): 0.873
relative viability (RERF-LC-KJ; first compound 0.253 µM): 0.823
relative viability (RERF-LC-KJ; first compound 0.8 µM): 0.838
relative viability (RERF-LC-KJ; first compound 2.53 µM): 0.659
relative viability (RERF-LC-KJ; first compound 8 µM): 0.648
relative viability (BEN; first compound 0.08 µM): 1.15
relative viability (BEN; first compound 0.253 µM): 1.15
relative viability (BEN; first compound 0.8 µM): 1.1
relative viability (BEN; first compound 2.53 µM): 1.07
relative viability (BEN; first compound 8 µM): 1.29
relative viability (LK-2; first compound 0.08 µM): 0.643
relative viability (LK-2; first compound 0.253 µM): 0.687
relative viability (LK-2; first compound 0.8 µM): 0.765
relative viability (LK-2; first compound 2.53 µM): 0.693
relative viability (LK-2; first compound 8 µM): 0.691
relative viability (NCI-H2087; first compound 0.08 µM): 0.679
relative viability (NCI-H2087; first compound 0.253 µM): 0.582
relative viability (NCI-H2087; first compound 2.53 µM): 0.579
relative viability (NCI-H2087; first compound 8 µM): 0.45
relative viability (SK-MES-1; first compound 0.08 µM): 0.715
relative viability (SK-MES-1; first compound 0.253 µM): 0.686
relative viability (SK-MES-1; first compound 0.8 µM): 0.749
relative viability (SK-MES-1; first compound 2.53 µM): 0.697
relative viability (SK-MES-1; first compound 8 µM): 0.619
relative viability (EMC-BAC-2; first compound 0.08 µM): 0.506
relative viability (EMC-BAC-2; first compound 0.253 µM): 0.463
relative viability (EMC-BAC-2; first compound 0.8 µM): 0.455
relative viability (EMC-BAC-2; first compound 2.53 µM): 0.456
relative viability (EMC-BAC-2; first compound 8 µM): 0.448
relative viability (EKVX; first compound 0.253 µM): 0.783
relative viability (EKVX; first compound 0.8 µM): 0.823
relative viability (EKVX; first compound 2.53 µM): 0.854
relative viability (EKVX; first compound 8 µM): 0.795
relative viability (SW 1573; first compound 0.08 µM): 0.457
relative viability (SW 1573; first compound 0.253 µM): 0.442
relative viability (SW 1573; first compound 0.8 µM): 0.448
relative viability (SW 1573; first compound 2.53 µM): 0.38
relative viability (SW 1573; first compound 8 µM): 0.391
relative viability (EPLC-272H; first compound 0.08 µM): 0.869
relative viability (EPLC-272H; first compound 0.253 µM): 0.709
relative viability (EPLC-272H; first compound 0.8 µM): 0.847
relative viability (EPLC-272H; first compound 2.53 µM): 0.554
relative viability (EPLC-272H; first compound 8 µM): 0.646
relative viability (ChaGo-K-1; first compound 0.08 µM): 0.402
relative viability (ChaGo-K-1; first compound 0.253 µM): 0.365
relative viability (ChaGo-K-1; first compound 0.8 µM): 0.433
relative viability (ChaGo-K-1; first compound 2.53 µM): 0.467
relative viability (ChaGo-K-1; first compound 8 µM): 0.413
relative viability (NCI-H1792; first compound 0.08 µM): 0.298
relative viability (NCI-H1792; first compound 0.253 µM): 0.452
relative viability (NCI-H1792; first compound 0.8 µM): 0.452
relative viability (NCI-H1792; first compound 2.53 µM): 0.406
relative viability (NCI-H1792; first compound 8 µM): 0.375
relative viability (HCC-78; first compound 0.08 µM): 0.832
relative viability (HCC-78; first compound 0.8 µM): 0.787
relative viability (HCC-78; first compound 2.53 µM): 0.709
relative viability (HCC-78; first compound 8 µM): 0.749
relative viability (NCI-H2126; first compound 0.08 µM): 0.922
relative viability (NCI-H2126; first compound 0.253 µM): 0.89
relative viability (NCI-H2126; first compound 0.8 µM): 0.944
relative viability (NCI-H2126; first compound 2.53 µM): 0.92
relative viability (NCI-H2126; first compound 8 µM): 0.858
relative viability (NCI-H1734; first compound 0.08 µM): 0.645
relative viability (NCI-H1734; first compound 0.253 µM): 0.563
relative viability (NCI-H1734; first compound 0.8 µM): 0.613
relative viability (NCI-H1734; first compound 2.53 µM): 0.636
relative viability (NCI-H1734; first compound 8 µM): 0.637
relative viability (NCI-H1944; first compound 0.08 µM): 0.427
relative viability (NCI-H1944; first compound 2.53 µM): 0.35
relative viability (NCI-H1944; first compound 8 µM): 0.413
relative viability (LCLC-97TM1; first compound 0.08 µM): 0.387
relative viability (LCLC-97TM1; first compound 0.253 µM): 0.314
relative viability (LCLC-97TM1; first compound 0.8 µM): 0.404
relative viability (LCLC-97TM1; first compound 2.53 µM): 0.222
relative viability (LCLC-97TM1; first compound 8 µM): 0.269
relative viability (HCC-827; first compound 0.253 µM): 0.627
relative viability (HCC-827; first compound 0.8 µM): 0.7
relative viability (HCC-827; first compound 2.53 µM): 0.747
relative viability (HCC-827; first compound 8 µM): 0.678
relative viability (NCI-H727; first compound 0.08 µM): 0.731
relative viability (NCI-H727; first compound 0.253 µM): 0.674
relative viability (NCI-H727; first compound 0.8 µM): 0.725
relative viability (NCI-H727; first compound 2.53 µM): 0.549
relative viability (NCI-H727; first compound 8 µM): 0.739
relative viability (NCI-H1650; first compound 0.08 µM): 0.775
relative viability (NCI-H1650; first compound 0.253 µM): 0.664
relative viability (NCI-H1650; first compound 0.8 µM): 0.762
relative viability (NCI-H1650; first compound 2.53 µM): 0.962
relative viability (NCI-H1650; first compound 8 µM): 0.805

Reference: the supplement of paper PMC10307832
